In paper PMC8213057, “Targeting ALK2: An Open Science Approach to Developing Therapeutics for the Treatment of Diffuse Intrinsic Pontine Glioma” (Journal of Medicinal Chemistry, 2020):
Where “and” joins values, the source holds several entries; their conditions need not be identical. Equal values may be shown once.

Columns and labels:
EGFR = EGFR (Homo sapiens, UniProt P00533); conditions: 1 μM; Run 1, Run 2
ERBB2/HER2 = ERBB2/HER2 (Homo sapiens, UniProt P04626); conditions: 1 μM; Run 1, Run 2
JNK3 = JNK3 (Homo sapiens, UniProt P53779); conditions: 1 μM; Run 1, Run 2
MELK = MELK (Homo sapiens, UniProt Q14680); conditions: 1 μM; Run 1, Run 2
MUSK = target: T1, MUSK (Homo sapiens, UniProt O15146); conditions: 1 μM; Run 1, Run 2
T1 sequence (O15146 24-869): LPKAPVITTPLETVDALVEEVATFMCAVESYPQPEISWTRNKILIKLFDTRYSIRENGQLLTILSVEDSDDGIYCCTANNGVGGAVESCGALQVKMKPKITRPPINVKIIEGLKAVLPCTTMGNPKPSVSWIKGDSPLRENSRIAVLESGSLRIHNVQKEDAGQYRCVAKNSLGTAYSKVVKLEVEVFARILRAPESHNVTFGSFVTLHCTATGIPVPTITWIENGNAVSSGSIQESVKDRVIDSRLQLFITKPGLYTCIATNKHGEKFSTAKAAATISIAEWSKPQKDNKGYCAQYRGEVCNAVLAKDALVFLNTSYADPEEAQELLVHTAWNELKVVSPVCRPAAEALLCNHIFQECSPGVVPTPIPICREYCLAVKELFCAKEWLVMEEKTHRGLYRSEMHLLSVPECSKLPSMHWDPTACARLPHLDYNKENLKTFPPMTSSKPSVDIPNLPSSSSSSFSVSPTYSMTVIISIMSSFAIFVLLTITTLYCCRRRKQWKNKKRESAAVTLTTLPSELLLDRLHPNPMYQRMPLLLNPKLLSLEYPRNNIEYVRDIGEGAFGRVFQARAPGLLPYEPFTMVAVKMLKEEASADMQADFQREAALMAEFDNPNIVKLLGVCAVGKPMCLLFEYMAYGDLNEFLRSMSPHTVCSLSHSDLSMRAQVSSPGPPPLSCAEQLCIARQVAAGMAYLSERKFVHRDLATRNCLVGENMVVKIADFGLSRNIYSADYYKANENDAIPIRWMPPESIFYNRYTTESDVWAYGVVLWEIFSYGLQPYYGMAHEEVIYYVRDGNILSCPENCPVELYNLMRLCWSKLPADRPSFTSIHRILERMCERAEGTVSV

SGK1 = target: T2, SGK1 (Homo sapiens, UniProt O00141); conditions: 1 μM; Run 1, Run 2
T2 sequence (O00141 1-431): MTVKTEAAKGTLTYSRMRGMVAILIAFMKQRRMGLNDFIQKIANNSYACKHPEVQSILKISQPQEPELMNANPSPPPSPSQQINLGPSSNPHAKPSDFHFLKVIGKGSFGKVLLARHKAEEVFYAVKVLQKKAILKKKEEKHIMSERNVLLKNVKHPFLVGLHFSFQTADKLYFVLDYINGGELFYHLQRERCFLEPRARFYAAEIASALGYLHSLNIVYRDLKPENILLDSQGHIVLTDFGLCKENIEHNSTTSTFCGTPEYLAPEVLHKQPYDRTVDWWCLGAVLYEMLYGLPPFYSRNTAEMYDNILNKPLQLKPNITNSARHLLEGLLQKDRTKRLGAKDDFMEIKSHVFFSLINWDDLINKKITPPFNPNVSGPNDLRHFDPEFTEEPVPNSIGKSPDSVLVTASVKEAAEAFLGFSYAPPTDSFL

STK16 = STK16 (Homo sapiens, UniProt O75716); conditions: 1 μM; Run 1, Run 2
DRAK1/STK17A = target: T3, DRAK1/STK17A (Homo sapiens, UniProt Q9UEE5); assay: biochemical; conditions: read-out: % enzyme activity, 1 μM; Run 1, Run 2
T3 sequence (Q9UEE5 1-414): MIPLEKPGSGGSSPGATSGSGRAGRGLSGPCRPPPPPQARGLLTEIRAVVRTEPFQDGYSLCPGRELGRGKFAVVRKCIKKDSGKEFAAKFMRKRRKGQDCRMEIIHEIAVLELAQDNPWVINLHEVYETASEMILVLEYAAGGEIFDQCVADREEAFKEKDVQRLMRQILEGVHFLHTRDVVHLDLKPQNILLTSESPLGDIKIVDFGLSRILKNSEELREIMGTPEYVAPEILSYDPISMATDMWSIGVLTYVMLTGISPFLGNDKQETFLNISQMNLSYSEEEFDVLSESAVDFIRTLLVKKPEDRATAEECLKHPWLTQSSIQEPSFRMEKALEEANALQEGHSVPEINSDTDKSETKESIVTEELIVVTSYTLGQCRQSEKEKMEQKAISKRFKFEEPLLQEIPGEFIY

MEK3 = target: T4, MEK3 (Homo sapiens, UniProt P46734); assay: biochemical; conditions: read-out: % enzyme activity, 1 μM; Run 1, Run 2
T4 sequence (P46734 1-347): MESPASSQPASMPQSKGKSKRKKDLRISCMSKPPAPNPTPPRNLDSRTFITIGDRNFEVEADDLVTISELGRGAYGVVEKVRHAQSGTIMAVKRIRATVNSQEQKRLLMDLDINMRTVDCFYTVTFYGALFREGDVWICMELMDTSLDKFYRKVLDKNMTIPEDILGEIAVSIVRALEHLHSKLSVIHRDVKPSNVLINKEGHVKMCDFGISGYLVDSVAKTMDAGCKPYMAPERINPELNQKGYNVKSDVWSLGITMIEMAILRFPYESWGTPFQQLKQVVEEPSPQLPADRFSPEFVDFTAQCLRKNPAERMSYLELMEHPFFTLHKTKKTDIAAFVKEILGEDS

WNK2 = WNK2 (Homo sapiens, UniProt Q9Y3S1); assay: biochemical; conditions: read-out: % enzyme activity, 1 μM; Run 1, Run 2
Sequence of WNK2 (Q9Y3S1 whole entry, species assumed): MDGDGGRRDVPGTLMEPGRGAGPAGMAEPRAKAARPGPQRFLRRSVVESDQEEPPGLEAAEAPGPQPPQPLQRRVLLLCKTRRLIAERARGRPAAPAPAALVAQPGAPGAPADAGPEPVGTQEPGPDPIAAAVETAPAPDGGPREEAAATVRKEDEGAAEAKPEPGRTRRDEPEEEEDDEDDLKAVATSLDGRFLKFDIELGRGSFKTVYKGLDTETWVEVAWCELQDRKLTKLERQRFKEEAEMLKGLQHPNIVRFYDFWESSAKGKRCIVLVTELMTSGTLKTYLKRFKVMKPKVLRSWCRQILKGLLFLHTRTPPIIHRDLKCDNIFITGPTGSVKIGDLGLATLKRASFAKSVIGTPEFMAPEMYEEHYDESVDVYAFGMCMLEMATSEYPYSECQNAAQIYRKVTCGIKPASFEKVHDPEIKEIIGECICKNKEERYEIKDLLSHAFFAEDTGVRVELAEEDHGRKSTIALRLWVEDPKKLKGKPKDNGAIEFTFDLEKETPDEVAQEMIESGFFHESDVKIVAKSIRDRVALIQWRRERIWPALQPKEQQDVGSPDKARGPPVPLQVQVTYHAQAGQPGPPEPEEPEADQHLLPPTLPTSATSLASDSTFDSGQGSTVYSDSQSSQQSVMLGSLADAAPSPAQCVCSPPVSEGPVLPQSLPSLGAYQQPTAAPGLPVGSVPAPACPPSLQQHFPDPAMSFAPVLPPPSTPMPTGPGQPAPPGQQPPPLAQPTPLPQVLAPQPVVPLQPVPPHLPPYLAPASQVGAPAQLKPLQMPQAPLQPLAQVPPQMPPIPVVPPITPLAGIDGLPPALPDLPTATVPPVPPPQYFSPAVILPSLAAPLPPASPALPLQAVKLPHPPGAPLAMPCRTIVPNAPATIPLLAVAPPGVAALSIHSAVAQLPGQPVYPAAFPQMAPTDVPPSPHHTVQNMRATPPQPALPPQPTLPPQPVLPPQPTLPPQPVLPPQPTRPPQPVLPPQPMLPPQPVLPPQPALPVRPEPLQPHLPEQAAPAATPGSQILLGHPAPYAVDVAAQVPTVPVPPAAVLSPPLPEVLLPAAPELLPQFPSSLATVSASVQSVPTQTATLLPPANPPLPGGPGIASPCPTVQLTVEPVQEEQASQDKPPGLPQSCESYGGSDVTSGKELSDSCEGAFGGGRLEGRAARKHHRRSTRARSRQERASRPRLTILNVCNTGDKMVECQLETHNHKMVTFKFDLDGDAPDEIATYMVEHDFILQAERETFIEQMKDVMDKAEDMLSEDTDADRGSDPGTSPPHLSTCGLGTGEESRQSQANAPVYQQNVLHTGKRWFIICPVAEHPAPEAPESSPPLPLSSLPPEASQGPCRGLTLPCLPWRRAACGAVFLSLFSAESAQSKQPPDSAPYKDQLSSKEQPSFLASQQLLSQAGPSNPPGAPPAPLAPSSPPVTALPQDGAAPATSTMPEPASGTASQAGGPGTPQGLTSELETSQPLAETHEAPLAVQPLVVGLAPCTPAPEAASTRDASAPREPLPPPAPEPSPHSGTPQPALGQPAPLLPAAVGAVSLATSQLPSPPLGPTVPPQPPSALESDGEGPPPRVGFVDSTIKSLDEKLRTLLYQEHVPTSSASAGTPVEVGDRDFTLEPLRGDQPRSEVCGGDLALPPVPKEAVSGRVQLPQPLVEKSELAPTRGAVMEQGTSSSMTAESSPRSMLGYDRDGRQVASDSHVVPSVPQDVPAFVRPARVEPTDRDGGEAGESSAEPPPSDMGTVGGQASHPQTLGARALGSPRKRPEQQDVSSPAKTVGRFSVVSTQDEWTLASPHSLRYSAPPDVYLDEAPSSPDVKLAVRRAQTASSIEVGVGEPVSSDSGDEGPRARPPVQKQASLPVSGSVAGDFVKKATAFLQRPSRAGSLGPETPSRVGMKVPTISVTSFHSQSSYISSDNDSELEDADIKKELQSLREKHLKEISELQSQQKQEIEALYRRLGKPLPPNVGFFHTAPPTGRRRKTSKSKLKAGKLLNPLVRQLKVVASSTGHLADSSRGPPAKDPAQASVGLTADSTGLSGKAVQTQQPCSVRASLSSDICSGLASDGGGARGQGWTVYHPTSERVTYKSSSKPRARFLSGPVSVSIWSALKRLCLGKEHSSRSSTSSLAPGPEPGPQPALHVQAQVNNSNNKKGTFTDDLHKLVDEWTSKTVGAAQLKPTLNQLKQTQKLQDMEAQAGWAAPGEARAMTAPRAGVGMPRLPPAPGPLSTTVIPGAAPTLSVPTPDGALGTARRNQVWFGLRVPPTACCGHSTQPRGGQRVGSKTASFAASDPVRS

Sequence of JNK3 (P53779 whole entry): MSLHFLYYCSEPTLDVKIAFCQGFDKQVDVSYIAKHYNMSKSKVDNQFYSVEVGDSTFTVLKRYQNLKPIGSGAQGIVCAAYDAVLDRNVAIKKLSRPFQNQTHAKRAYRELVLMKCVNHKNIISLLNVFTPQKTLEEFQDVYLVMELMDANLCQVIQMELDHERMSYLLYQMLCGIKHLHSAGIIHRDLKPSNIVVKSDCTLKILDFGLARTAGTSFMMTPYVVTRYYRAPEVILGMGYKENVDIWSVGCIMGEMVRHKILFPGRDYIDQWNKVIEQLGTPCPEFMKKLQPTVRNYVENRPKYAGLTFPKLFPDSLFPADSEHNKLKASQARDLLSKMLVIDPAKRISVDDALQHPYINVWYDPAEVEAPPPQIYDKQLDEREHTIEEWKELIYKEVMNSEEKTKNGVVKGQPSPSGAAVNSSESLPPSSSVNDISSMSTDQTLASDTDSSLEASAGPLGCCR
Sequence of EGFR (P00533 25-1210): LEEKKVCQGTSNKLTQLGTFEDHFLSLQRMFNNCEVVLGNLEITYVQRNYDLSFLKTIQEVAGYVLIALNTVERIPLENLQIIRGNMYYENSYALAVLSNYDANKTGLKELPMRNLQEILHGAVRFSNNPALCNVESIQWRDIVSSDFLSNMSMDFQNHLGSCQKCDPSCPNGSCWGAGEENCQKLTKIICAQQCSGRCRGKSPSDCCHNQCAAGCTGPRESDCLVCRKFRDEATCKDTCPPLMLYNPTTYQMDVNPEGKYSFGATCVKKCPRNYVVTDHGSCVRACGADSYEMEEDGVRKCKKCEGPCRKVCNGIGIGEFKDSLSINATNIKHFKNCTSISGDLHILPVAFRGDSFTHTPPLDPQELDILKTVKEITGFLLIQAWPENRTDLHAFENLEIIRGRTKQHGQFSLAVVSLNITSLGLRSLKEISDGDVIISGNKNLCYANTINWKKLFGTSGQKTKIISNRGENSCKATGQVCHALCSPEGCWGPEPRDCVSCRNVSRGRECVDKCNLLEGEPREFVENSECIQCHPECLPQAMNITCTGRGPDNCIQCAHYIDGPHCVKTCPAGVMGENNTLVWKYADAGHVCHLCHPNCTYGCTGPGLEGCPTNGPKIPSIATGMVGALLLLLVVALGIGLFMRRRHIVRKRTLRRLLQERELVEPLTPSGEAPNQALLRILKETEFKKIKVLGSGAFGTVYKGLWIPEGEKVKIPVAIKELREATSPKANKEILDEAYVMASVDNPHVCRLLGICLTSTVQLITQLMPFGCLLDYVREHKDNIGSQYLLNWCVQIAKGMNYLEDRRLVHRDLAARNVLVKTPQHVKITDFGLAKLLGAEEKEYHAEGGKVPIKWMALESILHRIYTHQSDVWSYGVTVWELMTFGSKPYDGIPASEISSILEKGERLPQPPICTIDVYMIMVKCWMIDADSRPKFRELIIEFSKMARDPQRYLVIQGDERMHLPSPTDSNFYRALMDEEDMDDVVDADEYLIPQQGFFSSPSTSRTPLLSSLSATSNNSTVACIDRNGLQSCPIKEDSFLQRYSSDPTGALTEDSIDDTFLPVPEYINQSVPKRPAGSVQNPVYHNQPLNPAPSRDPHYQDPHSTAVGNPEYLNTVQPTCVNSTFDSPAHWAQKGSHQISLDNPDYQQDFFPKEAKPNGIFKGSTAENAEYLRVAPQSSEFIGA
Sequence of STK16 (O75716 whole entry): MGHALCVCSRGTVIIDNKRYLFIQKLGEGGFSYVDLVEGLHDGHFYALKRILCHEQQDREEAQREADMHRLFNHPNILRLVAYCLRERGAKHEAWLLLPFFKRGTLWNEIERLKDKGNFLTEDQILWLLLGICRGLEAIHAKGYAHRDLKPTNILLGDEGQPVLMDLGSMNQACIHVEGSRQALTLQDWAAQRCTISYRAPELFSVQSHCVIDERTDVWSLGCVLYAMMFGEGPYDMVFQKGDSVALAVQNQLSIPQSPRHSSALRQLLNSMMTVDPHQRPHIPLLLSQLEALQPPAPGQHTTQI
Sequence of MELK (Q14680 whole entry): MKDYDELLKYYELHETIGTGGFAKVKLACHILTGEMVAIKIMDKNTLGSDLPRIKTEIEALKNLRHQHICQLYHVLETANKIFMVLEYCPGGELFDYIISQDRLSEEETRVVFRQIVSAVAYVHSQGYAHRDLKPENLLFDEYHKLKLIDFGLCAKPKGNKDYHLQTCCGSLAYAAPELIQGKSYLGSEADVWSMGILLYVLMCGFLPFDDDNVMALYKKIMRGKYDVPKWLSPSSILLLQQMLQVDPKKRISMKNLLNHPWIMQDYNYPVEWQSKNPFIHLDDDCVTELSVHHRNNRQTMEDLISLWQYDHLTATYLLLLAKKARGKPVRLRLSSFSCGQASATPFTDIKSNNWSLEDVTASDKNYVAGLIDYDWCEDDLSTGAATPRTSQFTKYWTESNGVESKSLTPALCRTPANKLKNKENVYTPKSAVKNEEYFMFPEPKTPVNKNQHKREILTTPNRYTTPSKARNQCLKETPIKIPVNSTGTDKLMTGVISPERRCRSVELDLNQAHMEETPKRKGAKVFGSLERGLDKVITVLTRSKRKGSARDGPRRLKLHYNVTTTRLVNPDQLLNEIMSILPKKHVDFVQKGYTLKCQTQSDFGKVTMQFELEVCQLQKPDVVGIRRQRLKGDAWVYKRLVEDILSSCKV

SMILES | % enzyme activity at 1 μM (HGK/MAP4K4) | % enzyme activity (EGFR) [%] | % enzyme activity (ERBB2/HER2) [%] | % enzyme activity (JNK3) [%] | % enzyme activity (MELK) [%] | % enzyme activity (MUSK) [%] | % enzyme activity (SGK1) [%] | % enzyme activity (STK16) [%] | remaining activity at 1 µM (DRAK1/STK17A) [%] | remaining activity at 1 µM (MEK3) [%] | remaining activity at 1 µM (WNK2) [%]
COc1cc(-c2cncc(-c3ccc(N4C[C@@H](C)N(C)[C@@H](C)C4)cc3)c2C)cc(F)c1C(N)=O [Compound 26c, 2-Fluoro-6-methoxy-4-(4-methyl-5-(4-((3R,5S)-3,4,5-trimethylpiperazin-1-yl)phenyl)pyridin-3-yl)benzamide] | 30.6% and 28.4% | 93.91 | 95.40 | 100.92 | 99.30 | 90.22 | 95.22 | 99.45 | 96.6 | 101 | 96.9
COc1cc(-c2cncc(-c3ccc(N4CCN(C)CC4)cc3)c2C)cc(F)c1C(N)=O [Compound 26a, 2-Fluoro-6-methoxy-4-(4-methyl-5-(4-(4-methylpiperazin-1-yl)phenyl)pyridin-3-yl)benzamide] | 22% and 21% | 95.66 | 89.07 | 93.66 | 98.82 | 91.48 | 93.48 | 103.69 | 96.4 | 102 | 95.5
